Consider 26 molecules from patent US20050215562A1, “Methods for treating protein aggregation disorders” (priority 2003, published 2005).

For assay [1], the target named is T1, NAC peptide (Homo sapiens, UniProt P37840).
T1 construct: a 35 amino acid peptide corresponding to residues 61 to 95 of the α-synuclein protein; made in house; host or cells: chemical solid-phase peptide synthesis (Fmoc), not expressed
The assay is described as follows: Circular dichroism (CD) analysis of NAC peptide conformation after incubation with test compounds (fibrillogenesis assay). Type of assay: biochemical. The arrangement: key to CD Result (NAC conformation observed): Random Coil: signifies that the NAC in the sample was observed to have been maintained in its original random coil conformation indicating that the compound coincubated with NAC is active; signifies that the compound was not able to prevent the shift from random coil to β-sheet; β-sheet/β-turn: signifies that the compound was not able to prevent the shift from random coil to β-sheet; Transition: signifies that the NAC was observed to be in the process of converting from random coil to β-sheet indicating that the compound was able to slow down the conformational change and indicates activity. As to conditions: for CD Result (NAC conformation observed): 125 μL of 40 μM NAC peptide with 125 μL of 200 μM test compound, pH 7.4, 37° C., conformations over repeated trials; for Activity (CD): active if it prevents the transition to β-turn/β-sheet in 50% or more of the trials; for Activity: active trials / trials: number of CD trials in which transition to β-turn/β-sheet was prevented, over trials run. As for the experimental part: 2 mM Solutions were prepared in TBSA buffer (Tris 0.02 M, NaCl 0.15 M, NaN3 0.005%, pH 7.4) and stored at 4° C. For the assays, compounds were diluted to the desired concentrations in TBSAE buffer (Tris 0.02 M, NaCl 0.15 M, NaN3 0.005%, EDTA 100 μM, pH 7.4) and combined with the NAC peptides.
Fibrillogenesis assays were employed to identify test compounds that inhibit NAC's ability to assemble into fibers. Following removal of HFIP by evaporation under N2 gas, 20 μM NAC peptide is incubated in the assay buffer (0.02M Tris, 0.15 M NaCl, 0.005% NaN3, 100 uM EDTA) at 37° C. in a Perkin-Elmer HTS 7000 plus microplate reader with shaking for 1 minute every twenty minutes. The presence of fibers can be monitored by three different methods.
The following assays were set up in clear polystyrene 96 well microplates by combining 125 μL of 40 μM NAC peptide with 125 μL of 200 μM test compound in 0.02M Tris, 0.15 M NaCl, 0.005% NaN3, […]. The microplates were sealed with a plastic sheet and incubated at 37° C. in a Perkin-Elmer HTS 7000 microplate reader with shaking for 1 minute, every 20 minutes. • Thioflavin T Analysis. To perform this assay 5 μM Thioflavin T is added to the NAC assembly conditions described above. The fluorescence is measured at 430 excitation/485 emission every twenty minutes with a Perkin-Elmer HTS microplate reader for the duration of the assay. […] This assay allows for the identification of compounds that can inhibit this increase in fluorescence upon incubation. • Turbidity Analysis. Alternatively, NAC peptide that has been incubated with test compounds in the appropriate assembly conditions can be analyzed by reading the absorbance at 405 nm to follow the turbidity of the solution which is also an indication of the formation of aggregates. • Circular Dichroism (CD) Analysis. […] This assay allows for the identification of compounds that can prevent NAC from adopting a β-sheet/β-turn conformation upon incubation. • At the appropriate time point, during the incubation, the test solutions were transferred to 0.1-cm path length quartz cuvettes and scanned by CD spectroscopy between 190 and 260 nm, with a resolution of 0.1 nm and a bandwidth of 1 nm using a Jasco J-715 spectropolarimeter at 37° C. […] At the time point at which CD scans are performed a 3 μl aliquot is removed from the sample, spotted onto a Formvar grid and then negatively stained with 4% uranyl acetate. The grids were examined for the presence of fibrils and amorphous aggregates using a JOEL 2000 transmission electron microscope at a 25,000 × magnification. This assay can be used to confirm the absence of fibers in the presence of compounds which inhibit NAC assembly by ThT and CD. The final results were obtained by averaging 10 complete sectors.
For compounds that have been tested multiple times, a compound is classified as active if it prevents the transition to β-turn/β-sheet in 50% or more of the trials.
For orientation: Circular dichroism is the unequal absorption of left and right circularly polarised light.

Assay [2] addresses T1, NAC peptide. Put plainly: Binding of compounds to NAC peptide by electrospray mass spectrometry. The note with it: area of bound NAC-compound complex peaks divided by area of unbound NAC peaks; 5:1 compound:NAC, pH 7.4, 6.6% EtOH. As for the experimental part: The ability of the compounds of the present invention to bind to NAC peptide in aqueous solution was evaluated. The binding ability correlates to the intensities of the peptide-compound complex peaks observed by the Electrospray Mass Spectrum. Millipore distilled deionized water was used to prepare all aqueous solutions. For pH determination a Beckman (Φ36 pH meter fitted with a Corning Semi-Micro Combination pH Electrode was employed.
The optimal cone voltage was determined to be 20V.
Mass spectrometry: Mass spectrometric analysis was performed using a Waters ZQ 4000 mass spectrometer equipped with a Waters 2795 sample manager. MassLynx 4.0 (earlier by MassLynx 3.5) was used for data processing and analysis. Test compounds were mixed with disaggregated peptides in aqueous media (6.6% EtOH) at a 5:1 ratio (20 μM NAC: 100 μM of test compound or 40 μM NAC : 200 μM of test compound). The pH of the mixture was adjusted to 7.4 (±0.2) using 0.1% NaOH (3-5 μL). Periodically, NAC peptide solution at 20 μM or 40 μM was also prepared in the same fashion and run as control. The spectra were obtained by introducing the solutions to the electrospray source by direct infusion using a syringe pump at a flow rate of 25 μl/min, and scanning from 100 to 2100 Da in the positive mode. The scan time was 0.9 sec per scan with an inter-scan delay of 0.1 sec and the run time was 5 min for each sample. All the mass spectra were sum of 300 scans. The desolvation and source temperature was 70° C. and the cone and capillary voltage were maintained at 20 V and 3.2 kV respectively.
The total area under the peaks for the bound NAC-compound complex divided by total area under the peaks for unbound NAC was determined for each compound tested.

As to `O=S(=O)(O)CCCCS(=O)(=O)O` [compound 1], on NAC peptide [1], the “CD Result (NAC conformation observed)” value is given as “Random Coil β-sheet”, the “Activity (CD)” value is listed as “Yes” and the “Activity: active trials / trials” value is reported as “½”. Also, the “Binding Strength” value on NAC peptide [2] was “− (None; when the total binding is between 30% and 0%)”.
Regarding `O=S(=O)(O)OCCCOS(=O)(=O)O` [compound 2], on NAC peptide [1], the “CD Result (NAC conformation observed)” value is listed as “Random Coil TRansition”, the “Activity (CD)” value was “Yes” and the “Activity: active trials / trials” value is given as 2/2. Moreover, the “Binding Strength” value on NAC peptide [2] is “− (None; when the total binding is between 30% and 0%)”.
`NCCOS(=O)(=O)O` [compound 3]: on NAC peptide [1], the “CD Result (NAC conformation observed)” value is “β- turn/βsheet”, the “Activity (CD)” value is listed as “No” and the “Activity: active trials / trials” value was 0/2. In addition, the “Binding Strength” value on NAC peptide [2] was “− (None; when the total binding is between 30% and 0%)”.
`NCCCOS(=O)(=O)O` [compound 4]: at NAC peptide [1], the “CD Result (NAC conformation observed)” value is recorded as “β-turn”, the “Activity (CD)” value was “No” and the “Activity: active trials / trials” value is 0/2. Besides, the “Binding Strength” value on NAC peptide [2] is “++ (Moderate; when the total binding is between 120% and 70%)”.
In the case of `NCCS(=O)(=O)O` [compound 5], on NAC peptide [1], the “CD Result (NAC conformation observed)” value is recorded as “β-sheet”, the “Activity (CD)” value is given as “No” and the “Activity: active trials / trials” value was 0/2. On NAC peptide [2], the “Binding Strength” value was “+ (Weak; when the total binding is between 70% and 30%)”.
Consider `O=S(=O)(O)CCCNCCc1c[nH]c2ccccc12` [compound 17], for which, on NAC peptide [1], the “CD Result (NAC conformation observed)” value is reported as “β-turn Transition”, the “Activity (CD)” value was “No” and the “Activity: active trials / trials” value is “⅓”.
`O=C1NCCCC[C@@H]1NCCCS(=O)(=O)O` [compound 18]: on NAC peptide [1], the “CD Result (NAC conformation observed)” value is listed as “β-sheet/β- turn”, the “Activity (CD)” value was “No” and the “Activity: active trials / trials” value is listed as 0/2.
On to `CC(C)(C)NCCCS(C)(=O)=O` [compound 19], for which, at NAC peptide [1], the “CD Result (NAC conformation observed)” value is “Random Coil β-turn”, the “Activity (CD)” value was “Yes” and the “Activity: active trials / trials” value is given as “½”.
The corresponding values for `CCCCCCNCCCS(=O)(=O)O` [compound 20] are “β-turn”, “No” and 0/2.
Regarding `O=S(=O)(O)CC(O)CNC1CCCCC1` (centres unmarked) [compound 21], at NAC peptide [1], the “CD Result (NAC conformation observed)” value is “β-sheet/β- turn Transition”, the “Activity (CD)” value is on record as “No” and the “Activity: active trials / trials” value was “⅓”.
With `O=S(=O)(O)CCCNC(Cc1ccccc1)c1ccccc1` (centres unmarked) [compound 22], on NAC peptide [1], the “CD Result (NAC conformation observed)” value was “Transition β-turn”, the “Activity (CD)” value was “No” and the “Activity: active trials / trials” value was “⅔”.
With `CC(CCNC12C[C@H]3C[C@@H](C1)C[C@@H](C2)C3)S(=O)(=O)O` (some centres unmarked) [compound 23], at NAC peptide [1], the “CD Result (NAC conformation observed)” value is reported as “Random Coil β-sheet”, the “Activity (CD)” value is listed as “Yes” and the “Activity: active trials / trials” value is “½”.
As to `O=S(=O)(O)CC(O)CNC12C[C@H]3C[C@@H](C1)C[C@@H](C2)C3` (some centres unmarked) [compound 24], at NAC peptide [1], the “CD Result (NAC conformation observed)” value was “Random Coil”, the “Activity (CD)” value is “Yes” and the “Activity: active trials / trials” value is reported as 2/2.
As to `O=S(=O)(O)CC(O)CNC1C2CC3CC(C2)CC1C3` (centres unmarked) [compound 25], on NAC peptide [1], the “CD Result (NAC conformation observed)” value is “Random Coil”, the “Activity (CD)” value was “Yes” and the “Activity: active trials / trials” value was 2/2.
The corresponding values for `O=S(=O)(O)CCCNC12C[C@H]3C[C@@H](C1)C[C@@H](C2)C3` [compound 26] are “Transition β-turn”, “Yes” and “½”.
Turning to `CCCC(CO)NCCC(C)S(=O)(=O)O` (centres unmarked) [compound 27], on NAC peptide [1], the “CD Result (NAC conformation observed)” value is reported as “β-sheet/β- turn”, the “Activity (CD)” value was “No” and the “Activity: active trials / trials” value is reported as 0/2.
For the molecule `CC(C)(C)NCCCCS(=O)(=O)O` [compound 28], at NAC peptide [1], the “CD Result (NAC conformation observed)” value was “β-turn/β- sheet”, the “Activity (CD)” value was “No” and the “Activity: active trials / trials” value is 0/3.
Take `CC(CC[N+]12CCC(CC1)CC2)S(=O)(=O)O` (centres unmarked) [compound 29]: on NAC peptide [1], the “CD Result (NAC conformation observed)” value is “β-turn”, the “Activity (CD)” value is recorded as “No” and the “Activity: active trials / trials” value is given as 0/3.
Consider `O=S(=O)(O)CCCC[N+]12CCC(CC1)CC2` [compound 30], for which, on NAC peptide [1], the “CD Result (NAC conformation observed)” value was “Random Coil β-sheet/β- turn”, the “Activity (CD)” value is given as “Yes” and the “Activity: active trials / trials” value was 2/4.
For the molecule `O=S(=O)([O-])CC(O)C[N+]12CCC(CC1)CC2` (centres unmarked) [compound 31], at NAC peptide [1], the “CD Result (NAC conformation observed)” value is given as “β-sheet/β- turn α-helix”, the “Activity (CD)” value was “No” and the “Activity: active trials / trials” value is “⅓”.
The corresponding values for `O=S(=O)(O)CCC[N+]12CCC(CC1)CC2` [compound 32] are “β-sheet/β- turn Random coil”, “No” and “¼”.
The corresponding values for `CC(C)CCNCC(O)CS(=O)(=O)O` (centres unmarked) [compound 33] are “Random Coil β-sheet/β- turn”, “Yes” and “½”.
The corresponding values for `CC1CC(NCCCS(=O)(=O)O)CC(C)(C)C1` (centres unmarked) [compound 34] are “Random Coil β-sheet”, “Yes” and “½”.
In the case of `CC(C)(C)C1CCC(NCCCS(=O)(=O)O)CC1` (centres unmarked) [compound 35], on NAC peptide [1], the “CD Result (NAC conformation observed)” value is “β-turn”, the “Activity (CD)” value is on record as “No” and the “Activity: active trials / trials” value is reported as 0/2.
The corresponding values for `O=C[C@H](Cc1ccccc1)NCCCS(=O)(=O)O` [compound 36] are “β-sheet”, “No” and 0/1.
With `O=C[C@@H](Cc1ccccc1)N(O)CCCS(=O)(=O)O` [compound 37], on NAC peptide [1], the “CD Result (NAC conformation observed)” value is “β-sheet Transition”, the “Activity (CD)” value is “Yes” and the “Activity: active trials / trials” value is “½”.
